The numbers were not newly measured in article PMC8155967, “Investigating the Potential of Transdermal Delivery of Avanafil Using Vitamin E-TPGS Based Mixed Micelles Loaded Films” (Pharmaceutics, 2021), which cites them from elsewhere.

≈ marks a conversion by molar mass, not a printed value.

As to `COc1ccc(CN=c2[nH]c(N3CCC[C@H]3CO)ncc2C(=O)NCc2ncccn2)cc1Cl` [AVA, Avanafil], the partition coefficient is 2.78 and the solubility in water is 30 µg/mL (≈ 62 µM).
